{
  "source": "patent US8138220B2",
  "about": "“[2-(6-fluoro-1H-indol-3-ylsulfanyl)benzyl]methyl amine for the treatment of affective disorders” (H. Lundbeck A/S, priority 2006, dated 2012)",
  "key": {"serotonin reuptake": {"molecular_target": "T1, serotonin reuptake (Rattus norvegicus, UniProt P31652)", "T1 construct": "rat cortical synaptosome preparation; from tissue; host or cells: rat cortical synaptosomes", "T1 sequence (P31652 whole entry)": "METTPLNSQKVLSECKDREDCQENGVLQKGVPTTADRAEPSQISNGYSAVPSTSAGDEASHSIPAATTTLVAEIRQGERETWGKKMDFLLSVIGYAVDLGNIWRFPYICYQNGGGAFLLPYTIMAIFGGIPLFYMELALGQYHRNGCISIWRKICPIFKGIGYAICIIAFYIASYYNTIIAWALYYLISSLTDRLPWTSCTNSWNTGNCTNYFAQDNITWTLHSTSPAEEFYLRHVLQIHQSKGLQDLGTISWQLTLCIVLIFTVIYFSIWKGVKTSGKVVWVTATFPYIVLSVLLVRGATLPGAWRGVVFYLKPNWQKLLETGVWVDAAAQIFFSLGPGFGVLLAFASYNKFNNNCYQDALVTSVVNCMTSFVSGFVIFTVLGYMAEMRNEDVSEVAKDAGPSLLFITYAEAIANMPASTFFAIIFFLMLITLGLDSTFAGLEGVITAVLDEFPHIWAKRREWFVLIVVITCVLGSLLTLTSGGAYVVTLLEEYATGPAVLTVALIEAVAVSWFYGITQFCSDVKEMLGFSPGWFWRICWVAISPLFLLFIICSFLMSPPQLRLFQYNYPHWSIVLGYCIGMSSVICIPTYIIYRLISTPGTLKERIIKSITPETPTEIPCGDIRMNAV", "experiment": "Serotonin transport inhibition, [3H]5-HT uptake in rat cortical synaptosomes", "assay_type": "biochemical", "conditions": "[3H]5-HT 10 nM", "method": "(§1) Aliquots of test compound and rat cortical synaptosome preparation were pre-incubated for 10 min/37° C., and then added [^3H]NE or [^3H]5-HT (final concentration 10 nM). Non-specific uptake was determined in the presence of 10 μM talsupram or citalopram and the total uptake was determined in the presence of buffer. Aliquots were incubated for 15 minutes at 37° C. After the incubation [^3H]NE or [^3H]5-HT taken up by synaptosomes was separated by filtration through Unifilter GF/C, presoaked in 0.1% PEI for 30 minutes, using a Tomtec CellHarvester program. Filters were washed and counted in a Wallac MicroBeta counter."}, "noradrenalin reuptake": {"molecular_target": "T2, noradrenalin reuptake (Rattus norvegicus, UniProt Q63380)", "T2 construct": "rat cortical synaptosome preparation; from tissue; host or cells: rat cortical synaptosomes", "T2 sequence (Q63380 1-617)": "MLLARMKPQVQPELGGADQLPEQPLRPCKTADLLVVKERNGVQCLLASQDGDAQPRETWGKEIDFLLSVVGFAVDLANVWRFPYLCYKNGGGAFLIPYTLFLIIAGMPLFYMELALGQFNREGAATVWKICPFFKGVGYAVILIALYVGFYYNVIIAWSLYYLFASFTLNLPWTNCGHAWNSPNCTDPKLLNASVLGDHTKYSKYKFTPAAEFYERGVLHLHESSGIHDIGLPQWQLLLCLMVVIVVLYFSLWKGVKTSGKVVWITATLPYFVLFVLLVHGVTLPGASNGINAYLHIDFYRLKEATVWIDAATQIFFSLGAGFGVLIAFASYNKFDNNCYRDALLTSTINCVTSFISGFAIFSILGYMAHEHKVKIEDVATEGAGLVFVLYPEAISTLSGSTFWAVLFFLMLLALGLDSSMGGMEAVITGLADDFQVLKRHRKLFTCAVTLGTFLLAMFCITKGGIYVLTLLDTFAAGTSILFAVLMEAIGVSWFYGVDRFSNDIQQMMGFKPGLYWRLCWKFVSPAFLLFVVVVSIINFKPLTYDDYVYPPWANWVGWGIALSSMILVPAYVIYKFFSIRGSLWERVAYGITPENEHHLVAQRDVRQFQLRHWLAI", "experiment": "Noradrenalin transport inhibition, [3H]NE uptake in rat cortical synaptosomes", "assay_type": "biochemical", "conditions": "[3H]NE 10 nM", "method": "as §1"}, "[1]": {"molecular_target": "T3, human alpha1A-7 receptors (Homo sapiens, UniProt P35348)", "T3 sequence (P35348 1-423 limits assumed)": "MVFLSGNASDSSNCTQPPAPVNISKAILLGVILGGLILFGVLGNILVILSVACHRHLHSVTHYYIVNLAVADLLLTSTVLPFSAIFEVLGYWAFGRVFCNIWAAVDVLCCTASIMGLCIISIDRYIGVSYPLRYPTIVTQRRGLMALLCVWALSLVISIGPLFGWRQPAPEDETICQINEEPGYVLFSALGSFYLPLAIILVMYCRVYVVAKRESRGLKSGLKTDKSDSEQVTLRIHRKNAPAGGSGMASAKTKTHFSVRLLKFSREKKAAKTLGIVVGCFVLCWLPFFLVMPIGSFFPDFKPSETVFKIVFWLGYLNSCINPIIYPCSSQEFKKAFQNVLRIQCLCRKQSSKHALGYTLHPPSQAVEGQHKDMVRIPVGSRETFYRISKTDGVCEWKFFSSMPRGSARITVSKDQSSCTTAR", "experiment": "α1A functional assay, adrenaline evoked Ca2+ release in CHO cells (FLIPR)", "assay_type": "cell-based", "conditions": "CHO cells expressing human alpha1A-7 receptors", "method": "All cells were cultured in DMEM medium supplemented with 10% BCS, 4 mM L-glutamine (or 2 mM in the case of COS-7), and 100 units/ml penicillin plus 100 μg/ml streptomycin, at 37° C., in 5% CO2.\nTwenty-four hours prior to assays, CHO cells expressing the human alpha1A-7 receptors were seeded into 384-well black wall microtiter plates coated with poly-D-lysine. Culture medium was aspirated and cells were dye-loaded with 1.5 μM Fluo-4 in assay buffer composed of Hank's Balanced Salt Solution (138 mM NaCl, 5 mM KCl, 1.3 mM CaCl2, 0.5 mM MgCl2, 0.4 mM MgSO4, 0.3 mM KH2PO4, 0.3 mM Na2HPO4, 5.6 mM glucose) plus 20 mM HEPES pH 7.4, 0.05% BSA and 2.5 mM probenicid (50 μl/well) for 1 hour in 5% CO2 at 37° C. After excess dye was discarded, cells were washed in assay buffer and layered with a final volume equal to 45 μl/well (or 30 ul/well for antagonist assay). […] Laser excitation energy was adjusted so that basal fluorescence readings were approximately 8,000 relative fluorescent units (RFU). Cells were then stimulated at room temperature with agonists diluted in assay buffer (15 μl), and RFU were measured at 1.5 second intervals over a period of 2.5 min. Maximum change in fluorescence was calculated for each well. Concentration-response curves derived from the maximum change in fluorescence were analyzed by nonlinear regression (Hill equation). […]"}, "rat 5-HT2A receptor": {"molecular_target": "rat 5-HT2A receptor (Rattus norvegicus, UniProt P14842)", "sequence (P14842 whole entry)": "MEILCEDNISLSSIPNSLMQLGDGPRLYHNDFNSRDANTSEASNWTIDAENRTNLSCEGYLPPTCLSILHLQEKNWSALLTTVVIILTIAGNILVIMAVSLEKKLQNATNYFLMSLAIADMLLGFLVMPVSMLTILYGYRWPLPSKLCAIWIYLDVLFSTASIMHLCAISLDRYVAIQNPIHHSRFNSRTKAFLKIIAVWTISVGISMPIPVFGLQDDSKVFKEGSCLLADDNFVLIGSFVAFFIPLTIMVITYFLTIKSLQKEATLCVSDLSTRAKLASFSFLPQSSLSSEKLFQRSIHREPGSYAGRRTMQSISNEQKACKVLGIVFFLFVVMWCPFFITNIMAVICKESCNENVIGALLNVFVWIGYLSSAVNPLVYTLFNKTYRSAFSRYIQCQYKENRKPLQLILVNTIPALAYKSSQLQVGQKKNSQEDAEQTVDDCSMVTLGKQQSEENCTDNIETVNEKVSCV", "experiment": "Ki for rat versus human 5-HT2A receptor", "assay_type": "binding"}, "Rats": {"system": "Rats", "experiment": "Impact on sleep architecture, EEG/EMG in rats", "assay_type": "in vivo, rat", "conditions": "for % of time spent in REM / % of time spent in SWS / % of time spent in Wake: second hour of recording; for sleep latency: time from injection until first consolidated sleeping episode", "method": "Rats were implanted with EEG and EMG electrodes to monitor the brain electrical activity and the muscle electrical activity, respectively. The electrodes were connected to a radio transmitter allowing a continuous collection of activity data from freely moving, undisturbed and home-caged animals. The EEG and EMG data were visually scored to determine the arousal states wake, SWS and REM sleep. A group of 10 rats were administered vehicle or the compound of the present invention corresponding to 0.4 mg/kg and 4 mg/kg of the free base. A William's square cross over design was applied so that each animal receives each treatment once."}, "[2]": {"system": "telemeterised Beagle dogs", "experiment": "Effect on blood pressure in telemeterised Beagle dogs", "assay_type": "in vivo, dog", "method": "The cardiovascular effects of compounds of the present invention were investigated in telemeterised Beagle dogs in the doses 0.25, 0.50 and 1.0 mg/kg given by gavage. Amount of compound is calculated as the free base. Six dogs were used in the experiment, three males and three females."}},
  "data": [
    {"smiles": "CNCc1ccccc1Sc1c[nH]c2cc(F)ccc12", "note": "[compounds of the present invention, [2-(6-fluoro-1H-indol-3-ylsulfanyl)benzyl]methyl amine]", "values": [
      {"measurement": "IC50", "setting": "serotonin reuptake", "value": 0.4, "unit": "nM"},
      {"measurement": "IC50", "setting": "noradrenalin reuptake", "value": 4.4, "unit": "nM"},
      {"measurement": "Kb", "setting": "[1]", "value": 64, "unit": "nM"},
      {"measurement": "Ki rat 5-HT2A receptor higher than human 5-HT2A receptor", "setting": "rat 5-HT2A receptor", "value": "~40", "unit": "fold"},
      {"measurement": "% of time spent in REM", "setting": "Rats; 0.4 mg/kg free base", "value": 0.00, "unit": "%"},
      {"measurement": "% of time spent in SWS", "setting": "Rats; 0.4 mg/kg free base", "value": 62.08, "unit": "%"},
      {"measurement": "% of time spent in Wake", "setting": "Rats; 0.4 mg/kg free base", "value": 37.92, "unit": "%"},
      {"measurement": "sleep latency", "setting": "Rats; 0.4 mg/kg", "value": 26.43, "unit": "min"},
      {"measurement": "% of time spent in REM", "setting": "Rats; 4.0 mg/kg free base", "value": 0.00, "unit": "%"},
      {"measurement": "% of time spent in SWS", "setting": "Rats; 4.0 mg/kg free base", "value": 69.97, "unit": "%"},
      {"measurement": "% of time spent in Wake", "setting": "Rats; 4.0 mg/kg free base", "value": 30.03, "unit": "%"},
      {"measurement": "sleep latency", "setting": "Rats; 4.0 mg/kg", "value": 20.62, "unit": "min"},
      {"measurement": "Systolic arterial blood pressure (Change from baseline (mean ± SD)) (10-380 min)", "setting": "[2]; 0.25 mg/kg by gavage", "value": "−4.26 ± 5.98"},
      {"measurement": "Systolic left ventricular pressure (Change from baseline (mean ± SD)) Post-dose period I (10-380 min)", "setting": "[2]; 0.25 mg/kg by gavage", "value": "−3.82 ± 3.42^♀"},
      {"measurement": "Systolic arterial blood pressure (Change from baseline (mean ± SD)) (10-380 min)", "setting": "[2]; 0.50 mg/kg by gavage", "value": "−9.77 ± 5.39"},
      {"measurement": "Systolic left ventricular pressure (Change from baseline (mean ± SD)) Post-dose period I (10-380 min)", "setting": "[2]; 0.50 mg/kg by gavage", "value": "−11.13 ± 4.05^♂♀"},
      {"measurement": "Systolic arterial blood pressure (Change from baseline (mean ± SD)) (10-380 min)", "setting": "[2]; 1.00 mg/kg by gavage", "value": "−6.30 ± 6.63"},
      {"measurement": "Systolic left ventricular pressure (Change from baseline (mean ± SD)) Post-dose period I (10-380 min)", "setting": "[2]; 1.00 mg/kg by gavage", "value": "−3.08 ± 5.37^♂,♀"}
    ]}
  ]
}
